From PubChem BioAssay AID1918931 (Molecular Pharmacology Branch, DTP, NCI, 2023)

System: 138582-337-R-J1-PDC complex spheroid viability
Test: Anticancer human tumor 138582-337-R-J1-PDC patient-derived Merkel cell tumor cell line growth inhibition
Conditions: for IC50: curve of first compound; for viability, T/C: stronger effect = lower value
Procedure, shortened: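 Multicellular complex spheroids of tumor cells with human endothelial cells (HUVEC) and mesenchymal stem cells; the LSD1 inhibitor iadademstat was combined with standard-of-care or investigational agents. Top concentration at or near clinical Cmax, half-log dilutions; final DMSO ≤0.25%.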

[1] = second compound 0.1 µM, first compound 0.000316 µM
[2] = second compound 0.1 µM, first compound 0.001 µM
[3] = second compound 0.1 µM, first compound 0.00316 µM
[4] = second compound 0.1 µM, first compound 0.01 µM
[5] = second compound 0.1 µM, first compound 0.0316 µM
[6] = second compound 0.1 µM, first compound 0.1 µM
[7] = second compound 0.316 µM, first compound 0.000316 µM
[8] = second compound 0.316 µM, first compound 0.001 µM
[9] = second compound 0.316 µM, first compound 0.00316 µM
[10] = second compound 0.316 µM, first compound 0.01 µM
[11] = second compound 0.316 µM, first compound 0.0316 µM
[12] = second compound 0.316 µM, first compound 0.1 µM
[13] = second compound 1 µM, first compound 0.000316 µM
[14] = second compound 1 µM, first compound 0.001 µM
[15] = second compound 1 µM, first compound 0.00316 µM
[16] = second compound 1 µM, first compound 0.01 µM
[17] = second compound 1 µM, first compound 0.0316 µM
[18] = second compound 1 µM, first compound 0.1 µM
[19] = second compound 3.16 µM, first compound 0.000316 µM
[20] = second compound 3.16 µM, first compound 0.001 µM
[21] = second compound 3.16 µM, first compound 0.00316 µM
[22] = second compound 3.16 µM, first compound 0.01 µM
[23] = second compound 3.16 µM, first compound 0.0316 µM
[24] = second compound 3.16 µM, first compound 0.1 µM
[25] = second compound 10 µM, first compound 0.000316 µM
[26] = second compound 10 µM, first compound 0.001 µM
[27] = second compound 10 µM, first compound 0.00316 µM
[28] = second compound 10 µM, first compound 0.01 µM
[29] = second compound 10 µM, first compound 0.0316 µM
[30] = second compound 10 µM, first compound 0.1 µM
[31] = second compound 0.1 µM, first compound 0.00949 µM
[32] = second compound 0.1 µM, first compound 0.03 µM
[33] = second compound 0.1 µM, first compound 0.0949 µM
[34] = second compound 0.1 µM, first compound 0.3 µM
[35] = second compound 0.1 µM, first compound 0.949 µM
[36] = second compound 0.1 µM, first compound 3 µM
[37] = second compound 0.316 µM, first compound 0.00949 µM
[38] = second compound 0.316 µM, first compound 0.03 µM
[39] = second compound 0.316 µM, first compound 0.0949 µM
[40] = second compound 0.316 µM, first compound 0.3 µM
[41] = second compound 0.316 µM, first compound 0.949 µM
[42] = second compound 0.316 µM, first compound 3 µM
[43] = second compound 1 µM, first compound 0.00949 µM
[44] = second compound 1 µM, first compound 0.03 µM
[45] = second compound 1 µM, first compound 0.0949 µM
[46] = second compound 1 µM, first compound 0.3 µM
[47] = second compound 1 µM, first compound 0.949 µM
[48] = second compound 1 µM, first compound 3 µM
[49] = second compound 3.16 µM, first compound 0.00949 µM
[50] = second compound 3.16 µM, first compound 0.03 µM
[51] = second compound 3.16 µM, first compound 0.0949 µM
[52] = second compound 3.16 µM, first compound 0.3 µM
[53] = second compound 3.16 µM, first compound 0.949 µM
[54] = second compound 3.16 µM, first compound 3 µM
[55] = second compound 10 µM, first compound 0.00949 µM
[56] = second compound 10 µM, first compound 0.03 µM
[57] = second compound 10 µM, first compound 0.0949 µM
[58] = second compound 10 µM, first compound 0.3 µM
[59] = second compound 10 µM, first compound 0.949 µM
[60] = second compound 10 µM, first compound 3 µM
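Further: spheroids exposed to agents for 7 days.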
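Wherever viability, T/C is given: 100% = DMSO vehicle control viability.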

CC(C)CC(NC(=O)C(Cc1ccccc1)NC(=O)c1cnccn1)B(O)O (stereo not given) + NC1CCC(NC2CC2c2ccccc2)CC1
IC50 (second compound 0.1 µM): 1.03 nM | IC50 (second compound 0.316 µM): 1.01 nM | IC50 (second compound 1 µM): 0.946 nM | IC50 (second compound 3.16 µM): 0.951 nM | IC50 (second compound 10 µM): 0.842 nM | viability, T/C [1]: 125% | viability, T/C [2]: 51.3% | viability, T/C [3]: 0.5% | viability, T/C [4]: 0.19% | viability, T/C [5]: 0.22% | viability, T/C [6]: 0.28% | viability, T/C [7]: 116% | viability, T/C [8]: 50.6% | viability, T/C [9]: 0.83% | viability, T/C [10]: 0.29% | viability, T/C [11]: 0.16% | viability, T/C [12]: 0.25% | viability, T/C [13]: 114% | viability, T/C [14]: 46.8% | viability, T/C [15]: 0.91% | viability, T/C [16]: 0.12% | viability, T/C [17]: 0.14% | viability, T/C [18]: 0.29% | viability, T/C [19]: 116% | viability, T/C [20]: 47% | viability, T/C [21]: 1.46% | viability, T/C [22]: 0.18% | viability, T/C [23]: 0.15% | viability, T/C [24]: 0.25% | viability, T/C [25]: 105% | viability, T/C [26]: 40.3% | viability, T/C [27]: 0.75% | viability, T/C [28]: 0.3% | viability, T/C [29]: 0.22% | viability, T/C [30]: 0.24%

CC(C)CC(NC(=O)CNC(=O)c1cc(Cl)ccc1Cl)B1OC(=O)CC(CC(=O)O)(C(=O)O)O1 (stereo not given) + NC1CCC(NC2CC2c2ccccc2)CC1
IC50 (second compound 0.1 µM): 8.89 nM | IC50 (second compound 0.316 µM): 8.97 nM | IC50 (second compound 1 µM): 10 nM | IC50 (second compound 3.16 µM): 8.03 nM | IC50 (second compound 10 µM): 8.49 nM | viability, T/C [1]: 101% | viability, T/C [2]: 129% | viability, T/C [3]: 124% | viability, T/C [4]: 42.3% | viability, T/C [5]: 6.66% | viability, T/C [6]: 0.46% | viability, T/C [7]: 109% | viability, T/C [8]: 129% | viability, T/C [9]: 115% | viability, T/C [10]: 42.9% | viability, T/C [11]: 11.4% | viability, T/C [12]: 0.49% | viability, T/C [13]: 94.4% | viability, T/C [14]: 115% | viability, T/C [15]: 120% | viability, T/C [16]: 50.1% | viability, T/C [17]: 7.89% | viability, T/C [18]: 0.25% | viability, T/C [19]: 104% | viability, T/C [20]: 98.8% | viability, T/C [21]: 112% | viability, T/C [22]: 37.1% | viability, T/C [23]: 9.88% | viability, T/C [24]: 0.47% | viability, T/C [25]: 89.8% | viability, T/C [26]: 105% | viability, T/C [27]: 101% | viability, T/C [28]: 42% | viability, T/C [29]: 7.38% | viability, T/C [30]: 0.96%

Nc1ccccc1NC(=O)c1ccc(CNC(=O)OCc2cccnc2)cc1 + NC1CCC(NC2CC2c2ccccc2)CC1
IC50 (second compound 0.1 µM): 1100 nM | IC50 (second compound 0.316 µM): 1100 nM | IC50 (second compound 1 µM): 1020 nM | IC50 (second compound 3.16 µM): 1010 nM | IC50 (second compound 10 µM): 138 nM | viability, T/C [31]: 103% | viability, T/C [32]: 81.7% | viability, T/C [33]: 83.9% | viability, T/C [34]: 101% | viability, T/C [35]: 57.1% | viability, T/C [36]: 1.81% | viability, T/C [37]: 88.8% | viability, T/C [38]: 76.8% | viability, T/C [39]: 79.5% | viability, T/C [40]: 86.1% | viability, T/C [41]: 57% | viability, T/C [42]: 1.94% | viability, T/C [43]: 96.1% | viability, T/C [44]: 80.2% | viability, T/C [45]: 77.3% | viability, T/C [46]: 92.5% | viability, T/C [47]: 53.5% | viability, T/C [48]: 0.81% | viability, T/C [49]: 90.5% | viability, T/C [50]: 82.3% | viability, T/C [51]: 74.5% | viability, T/C [52]: 76.4% | viability, T/C [53]: 53.5% | viability, T/C [54]: 0.82% | viability, T/C [55]: 74.2% | viability, T/C [56]: 57.8% | viability, T/C [57]: 62.2% | viability, T/C [58]: 35.4% | viability, T/C [59]: 17.7% | viability, T/C [60]: 0.52%

O=C(C=Cc1cccc(S(=O)(=O)Nc2ccccc2)c1)NO + NC1CCC(NC2CC2c2ccccc2)CC1
IC50 (second compound 0.1 µM): 580 nM | IC50 (second compound 0.316 µM): 678 nM | IC50 (second compound 1 µM): 562 nM | IC50 (second compound 3.16 µM): 483 nM | IC50 (second compound 10 µM): 408 nM | viability, T/C [31]: 82.7% | viability, T/C [32]: 90.2% | viability, T/C [33]: 96% | viability, T/C [34]: 75.3% | viability, T/C [35]: 30.4% | viability, T/C [36]: 2.19% | viability, T/C [37]: 69.6% | viability, T/C [38]: 89.3% | viability, T/C [39]: 95.8% | viability, T/C [40]: 93.6% | viability, T/C [41]: 34.7% | viability, T/C [42]: 2.29% | viability, T/C [43]: 85.3% | viability, T/C [44]: 92.6% | viability, T/C [45]: 97.8% | viability, T/C [46]: 66.5% | viability, T/C [47]: 34.1% | viability, T/C [48]: 1.94% | viability, T/C [49]: 76.5% | viability, T/C [50]: 92.3% | viability, T/C [51]: 79.5% | viability, T/C [52]: 64.7% | viability, T/C [53]: 28.7% | viability, T/C [54]: 0.44% | viability, T/C [55]: 73.9% | viability, T/C [56]: 77.6% | viability, T/C [57]: 82.2% | viability, T/C [58]: 52.3% | viability, T/C [59]: 29.9% | viability, T/C [60]: 0.47%

O=C(c1cc(Cc2n[nH]c(=O)c3ccccc23)ccc1F)N1CCN(C(=O)C2CC2)CC1 + NC1CCC(NC2CC2c2ccccc2)CC1
IC50 (second compound 0.1 µM): > 10000 nM | IC50 (second compound 0.316 µM): > 10000 nM | IC50 (second compound 1 µM): > 10000 nM | IC50 (second compound 3.16 µM): > 10000 nM | IC50 (second compound 10 µM): > 10000 nM | viability, T/C [5]: 102% | viability, T/C [6]: 91.2% | viability, T/C (second compound 0.1 µM, first compound 0.316 µM): 86.7% | viability, T/C (second compound 0.1 µM, first compound 1 µM): 92.7% | viability, T/C (second compound 0.1 µM, first compound 3.16 µM): 84.3% | viability, T/C (second compound 0.1 µM, first compound 10 µM): 95.7% | viability, T/C [11]: 99.6% | viability, T/C [12]: 99.9% | viability, T/C (second compound 0.316 µM, first compound 0.316 µM): 88.1% | viability, T/C (second compound 0.316 µM, first compound 1 µM): 85.8% | viability, T/C (second compound 0.316 µM, first compound 3.16 µM): 80.1% | viability, T/C (second compound 0.316 µM, first compound 10 µM): 103% | viability, T/C [17]: 102% | viability, T/C [18]: 98.1% | viability, T/C (second compound 1 µM, first compound 0.316 µM): 92.5% | viability, T/C (second compound 1 µM, first compound 1 µM): 81.1% | viability, T/C (second compound 1 µM, first compound 3.16 µM): 79% | viability, T/C (second compound 1 µM, first compound 10 µM): 104% | viability, T/C [23]: 83.8% | viability, T/C [24]: 98.3% | viability, T/C (second compound 3.16 µM, first compound 0.316 µM): 113% | viability, T/C (second compound 3.16 µM, first compound 1 µM): 76.5% | viability, T/C (second compound 3.16 µM, first compound 3.16 µM): 86.7% | viability, T/C (second compound 3.16 µM, first compound 10 µM): 75.7% | viability, T/C [29]: 78.5% | viability, T/C [30]: 104% | viability, T/C (second compound 10 µM, first compound 0.316 µM): 77.7% | viability, T/C (second compound 10 µM, first compound 1 µM): 74.1% | viability, T/C (second compound 10 µM, first compound 3.16 µM): 79.6% | viability, T/C (second compound 10 µM, first compound 10 µM): 63.7%
